Here are results for 13 molecules from patent US20100041920A1, “NEW SALT FORMS OF AN AMINOINDAN DERIVATIVE” (priority 2008, published 2010).

Where a name gives a salt, the structure may show the parent alone. Read-outs that look alike come from different tables or passages of the source. Where only a bound is given, the exact number is not on record here.

For data set [1] the following is noted: for Colour/Aspect 10 months later / Purity (HPLC) 10 months later / XRD result 10 months later: room temperature, ambient atmosphere; for Purity (HPLC) % initial / XRD result Initial: before storage.
The nature of the next data set: physchem. As to conditions: water. On the procedure:
The mother liquors were analyzed by HPLC.

Data set [2] is described as follows: Accelerated stability studies of rasagiline salts (40° C. and 75% RH; PE and AL bags). Format: physicochemical. As to conditions: for XRD 1st Month / XRD 2nd Month / Purity (HPLC) 1st Month / Purity (HPLC) 2nd Month: 40° C. and 75% RH; for XRD 1st Month / Purity (HPLC) 1st Month: 1 month; for XRD 2nd Month / Purity (HPLC) 2nd Month: 2 months. As to the method:
Rasagiline salts were submitted to accelerated conditions (40° C. and 75% RH) in two types of bags: polyethylene (PE) and aluminium (AL) bags. The samples were characterized by HPLC, XRD, and visual inspection.

Data set [3] in a line: Particle size studies of rasagiline salts (Malvern Mastersizer S). The following applies: particle size by volume, suspended in Isopar G with soybean lecithin.
The nature of data set [4]: Flowability studies of rasagiline salts (bulk and tapped density, Hausner ratio). As to conditions: for Flowability: flow character by Hausner ratio; for Bulk density: freely settled; for Hausner ratio: tapped bulk density divided by bulk density.
Where [5] appears, read: room temperature, stirred until equilibration, HPLC.
[6] abbreviates: 40° C. and 75% RH for one and two months.
Where [7] appears, read: listed as rasagiline succinate Form I.
[8] abbreviates: listed as rasagiline besylate Form I.

As for `C#CCN[C@@H]1CCc2ccccc21.O=C(O)[C@H]1OC(O)[C@H](O)[C@@H](O)[C@@H]1O` [D-Glucuronate, rasagiline D-glucuronate], in data set [1], the “Colour/Aspect 10 months later” value is on record as “brown oil”, the “Purity (HPLC) 10 months later” value is 50.64%, the “XRD result 10 months later” value is “amorphous” and the “Purity (HPLC) % initial” value is 86.00%. Further, in data set [1], the “XRD result Initial” value was “amorphous” and the “stability after ten months of storage (in words)” value (“stability after ten months” below) is given as “highly stable in terms of polymorphic form”.
Turning to `C#CCN[C@@H]1CCc2ccccc21.O=C(O)[C@H](O)[C@@H](O)[C@H](O)[C@H](O)CO` [Gluconate, rasagiline gluconate], in data set [1], the “Colour/Aspect 10 months later” value is on record as “brown oil”, the “Purity (HPLC) 10 months later” value amounted to 96.36%, the “XRD result 10 months later” value was “amorphous” and the “Purity (HPLC) % initial” value was found to be 98.61%. Besides, the “XRD result Initial” value in data set [1] is “amorphous”.
rasagiline succinate [Succinate Form I]: the “Descriptive term (solubility)” value in the data set “physchem” (room temperature) is reported as “Very soluble”. The Solubility (usually the dissolved amount per volume that the medium holds) in the data set “physchem” (setting [5]) is more than 1200 g/L. The molecule also returned a Solubility in the data set “physchem” (room temperature, stirred until equilibration, HPLC, listed as rasagiline succinate Form I) of more than 1200 g/L. Further, in “physchem” (room temperature, listed as rasagiline succinate Form I), the “Descriptive term (solubility)” value is given as “very soluble”. Also, the “stability under accelerated stability conditions (in words)” value in data set [2] (setting [6]) is “highly stable in terms of visual aspect, chemical purity and of polymorphic form”. Besides, in data set [2] (AL bag), the “XRD 1st Month” value was “Form I” and the “XRD 2nd Month” value was “Form I”. In data set [2] (PE bag), the “XRD 1st Month” value is “Form I” and the “XRD 2nd Month” value was “Form I”. In addition, in data set [2] (aluminium (AL) bag), the “Purity (HPLC) 1st Month” value is listed as more than 99.9% and the “Purity (HPLC) 2nd Month” value is on record as 99.92%. Also, in data set [2] (polyethylene (PE) bag), the “Purity (HPLC) 1st Month” value was more than 99.9% and the “Purity (HPLC) 2nd Month” value is reported as 99.92%. For the same molecule, in data set [2], the “Purity (HPLC) % initial” value is more than 99.9% and the “XRD Initial” value was “Form I”. Also, in data set [1], the “Purity (HPLC) 10 months later” value is reported as 99.61%, the “XRD result 10 months later” value is recorded as “Form I”, the “Purity (HPLC) % initial” value came to 99.29% and the “XRD result Initial” value is “Form I”. Further, the “stability after ten months” value in data set [1] was “highly stable in terms of visual aspect, chemical purity and of polymorphic form”. In addition, in data set [3], the “D(v, 0.1)” value was found to be 23.6 μm; the “D(v, 0.5)” value amounted to 85.1 μm; the “D(v, 0.9)” value is 180.4 μm. Besides, in data set [4], the Tapped density turned out to be 0.513 g/mL, the Flowability entry is “Excellent (1.00-1.11)”, the Bulk density is 0.492 g/mL and the Hausner ratio was 1.04. In data set [4] (setting [7]), the Flowability result is given as “excellent” and the Hausner ratio result was “about 1.04”. Besides, the Flowability result in data set [4] (listed as rasagiline succinate salt Form I) is recorded as “excellent”.
`C#CCN[C@@H]1CCc2ccccc21.CS(=O)(=O)O` [Mesylate, R-(+)-N-propargyl-1-aminoindan mesylate, reference compound]: in data set [1], the “Colour/Aspect 10 months later” value is “white powder”, the “Purity (HPLC) 10 months later” value worked out at 99.8%, the “XRD result 10 months later” value was “Form I” and the “Purity (HPLC) % initial” value was 99.58%. In addition, the “XRD result Initial” value in data set [1] is given as “Form I”. In addition, in data set [4], the Tapped density was 0.407 g/mL and the Bulk density stood at 0.236 g/mL. In addition, the Flowability result in data set [4] (listed as rasagiline mesylate, mesylate) was “very, very poor”. In data set [4] (mesylate), the Flowability result was “Very, very poor (>1.60)”.
`C#CCN[C@@H]1CCc2ccccc21` [Hydrochloride Form II, rasagiline hydrochloride] showed a Solubility in the data set “physchem” (thermodynamic from solid) of approximately 400 g/L. Also, the “stability under accelerated stability conditions (in words)” value in data set [2] (setting [6]) was “highly stable in terms of visual aspect, chemical purity and of polymorphic form”. In addition, in data set [2] (AL bag), the “XRD 1st Month” value is “Form II” and the “XRD 2nd Month” value is on record as “Form II”. In addition, in data set [2] (PE bag), the “XRD 1st Month” value was “Form II” and the “XRD 2nd Month” value is recorded as “Form II”. In data set [2] (aluminium (AL) bag), the “Purity (HPLC) 1st Month” value is more than 99.9% and the “Purity (HPLC) 2nd Month” value is on record as more than 99.9%. In addition, in data set [2] (polyethylene (PE) bag), the “Purity (HPLC) 1st Month” value is on record as more than 99.9% and the “Purity (HPLC) 2nd Month” value is more than 99.9%. Also, in data set [2], the “Purity (HPLC) % initial” value is reported as more than 99.9% and the “XRD Initial” value was “Form II”. In data set [3], the “D(v, 0.1)” value came to 41.7 μm; the “D(v, 0.5)” value is 99.6 μm; the “D(v, 0.9)” value was 185.2 μm. Moreover, in data set [4], the Tapped density stood at 0.673 g/mL and the Bulk density came out at 0.673 g/mL. Also, the Flowability entry in data set [4] (hydrochloride) was “Excellent (1.00-1.11)”. The Flowability result in data set [4] (listed as rasagiline hydrochloride Form II, hydrochloride) is recorded as “excellent”. For the same molecule, the Flowability result in data set [4] (listed as rasagiline hydrochloride salt Form II, hydrochloride) is reported as “excellent”.
As for rasagiline phosphate, in data set [1], the “Colour/Aspect 10 months later” value is reported as “white powder”, the “Purity (HPLC) 10 months later” value is 99.60%, the “Purity (HPLC) % initial” value came out at 98.45% and the “XRD result Initial” value was “amorphous”.
For the molecule rasagiline besylate [Besylate Form I], in the data set “physchem” (room temperature), the “Descriptive term (solubility)” value is listed as “Freely soluble”. The molecule further registered a Solubility in the data set “physchem” (setting [5]) of more than 800 g/L. In addition, in the data set “physchem” (room temperature, stirred until equilibration, HPLC, listed as rasagiline besylate Form I), the Solubility is listed as more than 800 g/L. In addition, in “physchem” (room temperature, listed as rasagiline besylate Form I), the “Descriptive term (solubility)” value is “freely soluble”. Moreover, the “stability under accelerated stability conditions (in words)” value in data set [2] (40° C. and 75% RH for one month) is “stable in terms of chemical purity and of polymorphic form”. Moreover, the “XRD 1st Month” value in data set [2] (AL bag) was “Form I”. Besides, the “Purity (HPLC) 1st Month” value in data set [2] (aluminium (AL) bag) is reported as more than 99.9%. In data set [2] (polyethylene (PE) bag), the “Purity (HPLC) 1st Month” value is more than 99.9%. Also, in data set [2], the “Purity (HPLC) % initial” value is listed as more than 99.9% and the “XRD Initial” value is recorded as “Form I”. Also, in data set [3], the “D(v, 0.1)” value is reported as 6.5 μm; the “D(v, 0.5)” value was 28.8 μm; the “D(v, 0.9)” value turned out to be 50.6 μm. Besides, in data set [4], the Tapped density is reported as 0.435 g/mL, the Flowability entry is “Excellent (1.00-1.11)”, the Bulk density worked out at 0.427 g/mL and the Hausner ratio is given as 1.02. In addition, in data set [4] (setting [8]), the Flowability entry is “excellent” and the Hausner ratio came to 1.00. Moreover, the Flowability entry in data set [4] (listed as rasagiline besylate salt Form I) is given as “excellent”.
Regarding rasagiline fumarate, in data set [1], the “Purity (HPLC) 10 months later” value is 53.64%, the “Purity (HPLC) % initial” value turned out to be 59.56% and the “XRD result Initial” value is recorded as “Form I”.
With `C#CCN[C@@H]1CCc2ccccc21.O=C(O)[C@@H](O)[C@H](O)[C@H](O)[C@@H](O)C(=O)O` [Galactarate, rasagiline galactarate], in data set [1], the “Purity (HPLC) 10 months later” value is given as 98.81%; the “Purity (HPLC) % initial” value came to 98.92%; the “stability after ten months” value was “stable in terms of chemical purity and of polymorphic form”.
With `C#CCN[C@@H]1CCc2ccccc21` [Hydrochloride, rasagiline hydrochloride], in data set [1], the “Colour/Aspect 10 months later” value is listed as “white powder”, the “Purity (HPLC) 10 months later” value was 99.74%, the “XRD result 10 months later” value was “Form I” and the “Purity (HPLC) % initial” value stood at 99.18%. For the same molecule, in data set [1], the “XRD result Initial” value is recorded as “Form I”; the “stability after ten months” value was “highly stable in terms of chemical purity and of polymorphic form”.
For rasagiline tosylate, in data set [1], the “Purity (HPLC) 10 months later” value amounted to 75.89%, the “XRD result 10 months later” value is on record as “Form I”, the “Purity (HPLC) % initial” value came out at 79.87% and the “XRD result Initial” value was “Form I”. Further, the “stability after ten months” value in data set [1] is reported as “highly stable in terms of polymorphic form”.
For the molecule rasagiline maleate, in data set [1], the “Colour/Aspect 10 months later” value is listed as “white powder”, the “Purity (HPLC) 10 months later” value is on record as 63.27%, the “Purity (HPLC) % initial” value is recorded as 66.54% and the “XRD result Initial” value is “Form I”.
With `C#CCN[C@@H]1CCc2ccccc21.C#CCN[C@@H]1CCc2ccccc21.O=C(O)C(O)C(O)C(=O)O` [Hemitartrate Form I, rasagiline L-hemitartrate], the “stability under accelerated stability conditions (in words)” value in data set [2] (setting [6]) was “highly stable in terms of visual aspect, chemical purity and of polymorphic form”. In data set [2], the “Purity (HPLC) % initial” value stood at 99.27% and the “XRD Initial” value is reported as “Form I”. In data set [1], the “Colour/Aspect 10 months later” value is “white powder”, the “Purity (HPLC) 10 months later” value turned out to be 98.86%, the “XRD result 10 months later” value is listed as “Form I” and the “Purity (HPLC) % initial” value was 99.14%. In data set [1], the “XRD result Initial” value is given as “Form I”; the “stability after ten months” value was “highly stable in terms of visual aspect, chemical purity and of polymorphic form”. Also, in data set [3], the “D(v, 0.1)” value is reported as 4.5 μm; the “D(v, 0.5)” value was determined as 18.3 μm; the “D(v, 0.9)” value is 78.8 μm. Further, in data set [4], the Tapped density is given as 0.181 g/mL, the Flowability result is recorded as “Passable (1.26-1.34)” and the Bulk density turned out to be 0.138 g/mL. In data set [4] (listed as rasagiline L-hemitartrate Form I), the Flowability result was “passable”. Besides, the Flowability result in data set [4] (listed as rasagiline L-hemitartrate salt Form I) is listed as “excellent”.
